Data taken from patent publication US9573920B2, “Compound, medicine, anti-inflammatory, cosmetic, food and drink, and method for producing compound” (Amino Up Chemical Co., Ltd., priority 2013, dated 2017).

Key:
Type in all cases: cell-based, rat
[1] = tested on: VEGF (VEGF-A/Vasculotropin); experiment: cytokine/chemokine array (in vitro), VEGF; settings: (+) IL-1β 1 nM, Pa5′ 100 μM
Experimental: (§1) In like manner with Example 4, liver cells were isolated from male Wistar rats by a collagenase perfusion method. The isolated liver cells were suspended in a medium (similar to that in Example 4) at 1.2×10^6 cells/mL, seeded in 35 mm plastic dishes (similar to those in Example 4) (1 mL/dish), and cultured in an incubator with 5% CO2 at 37° C. After 5 hours, the medium was replaced with fresh WE free of any serum and hormone, and the cells were cultured overnight until before use of the cells for an experiment.
(§2) On day 1 after the start of the culture, cells were subjected to replacement with fresh WE free of any serum and hormone, and IL-1β (similar to that in Example 4), and Pa5 extracted with methanol in Example 1 or Pa5′ extracted with methanol in Example 2 were added to the medium. The concentrations of IL-1β, Pa5, and Pa5′ in each medium were 1 nM, 20 μM, and 100 μM, respectively (Table 1). Then, the cells were cultured at 37° C., and the medium was collected 3 hours after the start of the culture. The collected medium was centrifuged for 1 minute at 5000 rpm to remove cellular debris, and the supernatant was used in an assay. The supernatant was preserved at −80° C. until performing the assay.
(§3) The productions of the various inflammatory cytokines/chemokines were measured according to an accompanying protocol using Rat Cytokine Antibody Array (R&D Systems) (http://www.rndsystems.com/product_detail_objectname_ratcytokinearray.aspx) capable of detecting 29 kinds of cytokines/chemokines in Proteome Profiler® Antibody Array. In the measurement, 1 mL of the supernatant of the medium obtained as described above was used.
(§4) In the above-described method, the 29 kinds of the cytokines/chemokines can be detected at once, and chemiluminescence on the filter of Proteome Profiler Antibody Array increases in proportion to the amount of each cytokine/chemokine. Thus, the chemiluminescence on the filter of Proteome Profiler Antibody Array was detected with LAS3000mini (GE Healthcare), subjected to densitometry analysis, and converted into a numeric value. The densitometry analysis was carried out with reference to http://www.hm6.aitai.ne.jp/˜maxcat/imageJ/technique.html#gels (the heading of “Analyzing Electrophoretic Gels”) using ImageJ software.

Fractalkine (CX3CL1) = experiment: cytokine/chemokine array (in vitro), Fractalkine; settings: Pa5′ 100 μM
Experimental: as §1, §2, §3, §4

MIG (CXCL9) = experiment: cytokine/chemokine array (in vitro), MIG; settings: (+) IL-1β 1 nM, Pa5′ 100 μM
Experimental: as §1, §2, §3, §4

sICAM-1 (CD54) = experiment: cytokine/chemokine array (in vitro), sICAM-1; settings: (+) IL-1β 1 nM, Pa5′ 100 μM
Experimental: as §1, §2, §3, §4

IL-17 = experiment: cytokine/chemokine array (in vitro), IL-17; settings: Pa5′ 100 μM
Experimental: as §1, §2, §3, §4

CINC-2α/β = experiment: cytokine/chemokine array (in vitro), CINC-2α/β; settings: (+) IL-1β 1 nM, Pa5′ 100 μM
Experimental: as §1, §2, §3, §4

Thymus Chemokine (CXCL7) = experiment: cytokine/chemokine array (in vitro), Thymus Chemokine; settings: Pa5′ 100 μM
Experimental: as §1, §2, §3, §4

CINC-3 = experiment: cytokine/chemokine array (in vitro), CINC-3; settings: (+) IL-1β 1 nM, Pa5′ 100 μM
Experimental: as §1, §2, §3, §4

[2] = (+) IL-1β 1 nM, 3 hours, (+) alone = 100.0
[3] = (+) IL-1β 1 nM, medium at 3 hours
[4] = rat liver cells, IL-1β 1 nM, 3 hours

COc1cc(O)c2c(c1O)OC(c1ccccc1)CC2=O (centres unmarked) [Pa5′, 5,8-dihydroxy-7-methoxyflavanone]
VEGF (VEGF-A/Vasculotropin) (%) ([1]; 3 hours, (+) alone = 100.0): 109.7% | VEGF (VEGF-A/Vasculotropin) chemiluminescence densitometry, Average ([1]; medium at 3 hours): 896.7 | VEGF (VEGF-A/Vasculotropin) chemiluminescence densitometry, first value ([1]; medium at 3 hours): 875.1 | VEGF (VEGF-A/Vasculotropin) chemiluminescence densitometry, second value ([1]; medium at 3 hours): 918.4 | Fractakine (CX3CL1) (%) (Fractalkine (CX3CL1); [2]): 42.7% | Fractakine (CX3CL1) chemiluminescence densitometry, Average (Fractalkine (CX3CL1); [3]): 310.1 | Fractakine (CX3CL1) chemiluminescence densitometry, first value (Fractalkine (CX3CL1); [3]): 287.0 | Fractakine (CX3CL1) chemiluminescence densitometry, second value (Fractalkine (CX3CL1); [3]): 333.3 | induction of fractalkine (CX3CL1) (Fractalkine (CX3CL1); [4]): strongly inhibit | MIG (CXCL9) (%) (MIG (CXCL9); 3 hours, (+) alone = 100.0): 86.8% | MIG (CXCL9) chemiluminescence densitometry, Average (MIG (CXCL9); medium at 3 hours): 666.4 | MIG (CXCL9) chemiluminescence densitometry, first value (MIG (CXCL9); medium at 3 hours): 672.8 | MIG (CXCL9) chemiluminescence densitometry, second value (MIG (CXCL9); medium at 3 hours): 660.1 | sICAM-1 (CD54) (%) (sICAM-1 (CD54); 3 hours, (+) alone = 100.0): 68.4% | sICAM-1 (CD54) chemiluminescence densitometry, Average (sICAM-1 (CD54); medium at 3 hours): 257.3 | sICAM-1 (CD54) chemiluminescence densitometry, first value (sICAM-1 (CD54); medium at 3 hours): 250.3 | sICAM-1 (CD54) chemiluminescence densitometry, second value (sICAM-1 (CD54); medium at 3 hours): 264.3 | IL-17 (%) (IL-17; [2]): 29.6% | IL-17 chemiluminescence densitometry, Average (IL-17; [3]): 36.7 | IL-17 chemiluminescence densitometry, first value (IL-17; [3]): 6.1 | IL-17 chemiluminescence densitometry, second value (IL-17; [3]): 67.2 | induction of IL-17 (IL-17; [4]): strongly inhibit | CINC-2α/β (%) (CINC-2α/β; 3 hours, (+) alone = 100.0): 96.8% | CINC-2α/β chemiluminescence densitometry, Average (CINC-2α/β; medium at 3 hours): 5839.6 | CINC-2α/β chemiluminescence densitometry, first value (CINC-2α/β; medium at 3 hours): 5944.2 | CINC-2α/β chemiluminescence densitometry, second value (CINC-2α/β; medium at 3 hours): 5735.0 | Thymus Chemokine (CXCL7) (%) (Thymus Chemokine (CXCL7); [2]): 23.1% | Thymus Chemokine (CXCL7) chemiluminescence densitometry, Average (Thymus Chemokine (CXCL7); [3]): 73.0 | Thymus Chemokine (CXCL7) chemiluminescence densitometry, first value (Thymus Chemokine (CXCL7); [3]): 62.8 | Thymus Chemokine (CXCL7) chemiluminescence densitometry, second value (Thymus Chemokine (CXCL7); [3]): 83.2 | induction of thymus chemokine (CXCL7) (Thymus Chemokine (CXCL7); [4]): strongly inhibit | CINC-3 (%) (CINC-3; 3 hours, (+) alone = 100.0): 60.8% | CINC-3 chemiluminescence densitometry, Average (CINC-3; medium at 3 hours): 1846.9 | CINC-3 chemiluminescence densitometry, first value (CINC-3; medium at 3 hours): 1849.2 | CINC-3 chemiluminescence densitometry, second value (CINC-3; medium at 3 hours): 1844.7
